Format in all cases: cell-based
In test [1] the target is T1, UCP1 (uncoupling protein 1) (Mus musculus, UniProt P12242).
T1 sequence (P12242 1-307): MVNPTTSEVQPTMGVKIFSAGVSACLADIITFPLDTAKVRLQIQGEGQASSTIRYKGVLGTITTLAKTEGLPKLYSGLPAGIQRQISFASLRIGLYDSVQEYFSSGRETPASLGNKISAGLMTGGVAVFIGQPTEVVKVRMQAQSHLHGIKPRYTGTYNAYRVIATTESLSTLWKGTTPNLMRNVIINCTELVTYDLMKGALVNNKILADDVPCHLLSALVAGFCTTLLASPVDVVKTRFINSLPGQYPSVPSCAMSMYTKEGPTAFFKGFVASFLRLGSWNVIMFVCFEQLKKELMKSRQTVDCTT
In words: whole-mitoplast patch-clamp, inhibition by […] GDP in the bath. (In general: In patch-clamp work, channel activity is measured electrically.)

In test [2] the target is T1, UCP1 (uncoupling protein 1). Kind of test: whole-mitoplast patch-clamp, inhibition by […] in the bath. As to conditions: read-out: % inhibition at 4 μM.
For test [3] the target is unchanged. In words: whole-mitoplast patch-clamp, inhibition of IUCP1 reactivated with exogenous OA. Particulars: read-out: % inhibition at 50 μM.

Molecules are shown by their SMILES.

Turning to `Nc1nc2c(ncn2[C@@H]2O[C@H](COP(=O)(O)OP(=O)(O)O)[C@@H](O)[C@H]2O)c(=O)[nH]1` [GDP], the “whole-mitoplast patch-clamp, inhibition by 1 mM GDP in the bath” value in test [1] is on record as “elicited a large-amplitude current that was strongly inhibited by the classic UCP1 inhibitor GDP (Figure 1B)”.

For orientation: inhibition means how much of the control response was suppressed. On to `CCCCCCCC/C=C\CCCCCCCC(=O)SCCNC(=O)CCNC(=O)[C@H](O)C(C)(C)COP(=O)(O)OP(=O)(O)OC[C@H]1O[C@@H](n2cnc3c(N)ncnc32)[C@H](O)[C@@H]1OP(=O)(O)O` [oleoyl-CoA], for which, in test [2], the inhibition at 4 µM was found to be 92%.

`O=C1NC(=O)/C(=C/c2ccc(C(=O)NC[C@@H]3C[C@@H](SC(c4ccccc4)(c4ccccc4)c4ccccc4)CN3C(=O)c3ccccc3C(=O)c3ccc(F)cc3F)cc2)S1` [pyrrophenone]: the inhibition at 50 µM in test [3] is 77%.

The record behind these values is PMC3782081 (Cell, 2012).
